Assay results published in the NIST ThermoML archive (doi:10.1021/acs.jced.8b00975).
± gives the expanded uncertainty stated by the source.

Test: xn = mol fraction of the nth substance listed
Conditions: Liquid, Vibrating tube method

C=C(C)C(=O)OCCN(C)C [2-(dimethylamino)ethyl methylpropenoate] + CCCO
mass density [kg/m3]
Conditions	100 kPa	5000 kPa	10000 kPa	15000 kPa	20000 kPa	25000 kPa	30000 kPa	35000 kPa
293.15 K, x1 = 0.03	813.1 ± 0.52	817.13 ± 0.52	820.85 ± 0.53	824.33 ± 0.55	827.64 ± 0.56	830.83 ± 0.57	833.97 ± 0.58	837.12 ± 0.59
293.15 K, x1 = 0.0598	822.05 ± 0.52	825.95 ± 0.52	829.65 ± 0.53	833.15 ± 0.54	836.5 ± 0.55	839.72 ± 0.57	842.82 ± 0.58	845.84 ± 0.59
293.15 K, x1 = 0.0998	832.86 ± 0.52	836.81 ± 0.52	840.49 ± 0.53	843.94 ± 0.54	847.22 ± 0.55	850.38 ± 0.56	853.46 ± 0.57	856.5 ± 0.58
293.15 K, x1 = 0.1502	845.14 ± 0.52	849.07 ± 0.52	852.65 ± 0.53	856.05 ± 0.54	859.3 ± 0.55	862.47 ± 0.56	865.58 ± 0.57	868.68 ± 0.58
293.15 K, x1 = 0.2003	855.86 ± 0.52	859.68 ± 0.52	863.26 ± 0.53	866.65 ± 0.54	869.89 ± 0.55	873.06 ± 0.55	876.18 ± 0.56	879.33 ± 0.57
293.15 K, x1 = 0.2502	865.17 ± 0.52	868.95 ± 0.52	872.5 ± 0.53	875.88 ± 0.54	879.12 ± 0.54	882.27 ± 0.55	885.37 ± 0.56	888.47 ± 0.57
293.15 K, x1 = 0.3013	873.68 ± 0.52	877.48 ± 0.52	881.04 ± 0.53	884.41 ± 0.54	887.65 ± 0.54	890.79 ± 0.55	893.88 ± 0.56	896.98 ± 0.56
293.15 K, x1 = 0.3992	887.54 ± 0.52	891.31 ± 0.53	894.85 ± 0.53	898.21 ± 0.54	901.43 ± 0.54	904.58 ± 0.55	907.69 ± 0.55	910.81 ± 0.56
293.15 K, x1 = 0.4482	893.36 ± 0.52	897.13 ± 0.53	900.67 ± 0.53	904.04 ± 0.54	907.28 ± 0.54	910.43 ± 0.55	913.53 ± 0.55	916.64 ± 0.56
293.15 K, x1 = 0.4998	898.97 ± 0.52	902.77 ± 0.53	906.35 ± 0.53	909.73 ± 0.54	912.96 ± 0.54	916.08 ± 0.55	919.13 ± 0.55	922.15 ± 0.56
293.15 K, x1 = 0.5509	903.96 ± 0.52	907.77 ± 0.53	911.33 ± 0.53	914.67 ± 0.54	917.88 ± 0.54	921 ± 0.55	924.1 ± 0.55	927.23 ± 0.56
293.15 K, x1 = 0.5986	908.27 ± 0.53	912.04 ± 0.53	915.56 ± 0.53	918.89 ± 0.54	922.08 ± 0.54	925.2 ± 0.55	928.3 ± 0.55	931.47 ± 0.55
293.15 K, x1 = 0.699	916.1 ± 0.53	919.83 ± 0.53	923.35 ± 0.54	926.69 ± 0.54	929.91 ± 0.55	933.05 ± 0.55	936.14 ± 0.55	939.24 ± 0.56
293.15 K, x1 = 0.7994	922.7 ± 0.53	926.51 ± 0.54	930.05 ± 0.54	933.38 ± 0.54	936.55 ± 0.55	939.65 ± 0.55	942.73 ± 0.55	945.86 ± 0.56
293.15 K, x1 = 0.8519	925.73 ± 0.53	929.5 ± 0.54	933.03 ± 0.54	936.39 ± 0.55	939.61 ± 0.55	942.75 ± 0.55	945.87 ± 0.56	949.02 ± 0.56
293.15 K, x1 = 0.8992	928.25 ± 0.54	931.98 ± 0.54	935.56 ± 0.55	938.89 ± 0.55	942.14 ± 0.55	945.3 ± 0.56	948.43 ± 0.56	951.54 ± 0.56
293.15 K, x1 = 0.9284	929.69 ± 0.54	933.42 ± 0.54	936.97 ± 0.55	940.36 ± 0.55	943.63 ± 0.55	946.83 ± 0.56	949.98 ± 0.56	953.12 ± 0.56
293.15 K, x1 = 0.9587	931.16 ± 0.54	934.9 ± 0.54	938.45 ± 0.55	941.84 ± 0.55	945.11 ± 0.56	948.29 ± 0.56	951.43 ± 0.56	954.55 ± 0.56
303.15 K, x1 = 0.0307	805.44 ± 0.52	809.69 ± 0.53	813.63 ± 0.54	817.3 ± 0.55	–	–	–	–
303.15 K, x1 = 0.0599	813.96 ± 0.52	818.16 ± 0.53	822.06 ± 0.53	825.7 ± 0.55	–	–	–	–
303.15 K, x1 = 0.1003	824.72 ± 0.52	828.9 ± 0.52	832.79 ± 0.53	836.41 ± 0.54	–	–	–	–
303.15 K, x1 = 0.201	847.03 ± 0.52	851.16 ± 0.53	854.99 ± 0.53	–	–	–	–	–
303.15 K, x1 = 0.3004	864.34 ± 0.52	868.29 ± 0.53	872.06 ± 0.53	–	–	–	–	–
303.15 K, x1 = 0.4007	878.29 ± 0.52	882.23 ± 0.53	885.98 ± 0.53	–	–	–	–	–
303.15 K, x1 = 0.4507	884.12 ± 0.52	888.05 ± 0.53	891.79 ± 0.53	–	–	–	–	–
303.15 K, x1 = 0.4985	889.33 ± 0.52	893.25 ± 0.53	896.99 ± 0.54	–	–	–	–	–
303.15 K, x1 = 0.5535	894.64 ± 0.53	898.56 ± 0.53	902.3 ± 0.54	–	–	–	–	–
303.15 K, x1 = 0.5907	897.88 ± 0.53	901.87 ± 0.53	905.63 ± 0.54	–	–	–	–	–
303.15 K, x1 = 0.7009	906.35 ± 0.53	910.27 ± 0.53	914.01 ± 0.54	–	–	–	–	–
303.15 K, x1 = 0.8	912.95 ± 0.53	916.83 ± 0.54	920.56 ± 0.54	–	–	–	–	–
303.15 K, x1 = 0.9043	918.6 ± 0.54	922.52 ± 0.54	926.3 ± 0.55	–	–	–	–	–
303.15 K, x1 = 0.9269	919.6 ± 0.54	923.57 ± 0.54	927.36 ± 0.55	–	–	–	–	–
303.15 K, x1 = 0.9551	921.07 ± 0.54	924.99 ± 0.55	928.75 ± 0.55	–	–	–	–	–
